Where a name gives a salt, the structure may show the parent alone. Read-outs that look alike come from different tables or passages of the source.
Tests used:
[1] = target: T1, 5-HT1A receptors (Rattus norvegicus, UniProt P19327); experiment: Inhibition of 3H-8-OH-DPAT binding to serotonin 5-HT1A receptors in rat brain in vitro; conditions: 3H-8-OH-DPAT 1 nM; for IC50: membranes from rat brain minus cerebellum, read-out: 3H 8-OH DPAT (5-HT1A) binding, IC50
T1 construct: 5-HT1A receptors in membranes from rat brain minus cerebellum; from tissue; host or cells: rat brain minus cerebellum, membranes
T1 sequence (P19327 1-422): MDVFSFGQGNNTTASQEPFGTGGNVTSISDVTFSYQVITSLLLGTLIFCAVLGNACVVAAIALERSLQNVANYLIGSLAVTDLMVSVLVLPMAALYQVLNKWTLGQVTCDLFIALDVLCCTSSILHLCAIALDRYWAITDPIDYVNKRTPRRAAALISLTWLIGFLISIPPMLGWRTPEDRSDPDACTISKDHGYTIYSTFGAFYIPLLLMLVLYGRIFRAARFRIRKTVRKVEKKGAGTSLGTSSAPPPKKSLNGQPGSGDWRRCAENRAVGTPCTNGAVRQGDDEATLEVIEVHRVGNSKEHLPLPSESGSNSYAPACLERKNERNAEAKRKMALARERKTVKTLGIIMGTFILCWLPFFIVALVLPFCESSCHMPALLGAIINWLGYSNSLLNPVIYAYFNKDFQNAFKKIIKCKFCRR
Procedure: By this method the inhibition by drugs of the binding of the 5-HT1A agonist ^3H-8-OH-DPAT (1 nM) to 5-HT1A receptors in membranes from rat brain minus cerebellum is determined in vitro . Accordingly, this is a test for affinity for the 5-HT1A receptor. The test is performed as described by Hyttel et al., Drug. Dev. Res., 1988, 15, 389-404.

[2] = target: T2, 5-HT2A receptors (Rattus norvegicus, UniProt P14842); experiment: Inhibition of 3H-Ketanserin binding to 5-HT2 receptors in rat cortex in vitro
T2 construct: 5-HT2A receptors in membranes from rat is determined in vitro; from tissue; host or cells: rat cortex membranes
Procedure: Inhibition of ^3H-Ketanserin Binding to 5-HT2 Receptors in Rat Cortex in vitro.
By this method the inhibition by drugs of the binding of ^3H-Ketanserin (0.5 nM) to 5-HT2A receptors in membranes from rat is determined in vitro .

[3] = 3H-Ketanserin 0.5 nM, membranes from rat cortex, read-out: 3H Ketanserin (5-HT2A) binding, IC50

T2 sequence (P14842 whole entry): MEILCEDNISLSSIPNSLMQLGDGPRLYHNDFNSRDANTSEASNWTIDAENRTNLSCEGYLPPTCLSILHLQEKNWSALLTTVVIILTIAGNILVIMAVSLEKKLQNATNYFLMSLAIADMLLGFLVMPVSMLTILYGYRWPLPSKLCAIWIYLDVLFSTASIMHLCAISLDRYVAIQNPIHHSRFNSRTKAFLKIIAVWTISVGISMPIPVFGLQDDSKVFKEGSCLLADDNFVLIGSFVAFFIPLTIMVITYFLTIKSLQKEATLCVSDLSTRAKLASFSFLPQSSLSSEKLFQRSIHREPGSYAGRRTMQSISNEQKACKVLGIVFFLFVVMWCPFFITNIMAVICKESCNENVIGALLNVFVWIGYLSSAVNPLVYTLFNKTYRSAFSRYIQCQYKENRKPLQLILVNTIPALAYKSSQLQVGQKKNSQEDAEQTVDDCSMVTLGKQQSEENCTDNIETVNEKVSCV

CC(=O)Nc1ccc2c(c1)C(CN1CCC(n3ccc4cc(Cl)ccc43)CC1)CC2 (stereo not drawn)
melting point: 189 to 191 °C

Nc1ccc2c(c1)C(CN1CC=C(c3ccc(F)cc3)CC1)CC2 (stereo not drawn)
melting point: 78 to 84 °C

CCOC(=O)Nc1ccc2c(c1)C(CN1CCC(c3ccc(F)cc3)CC1)CC2 (stereo not drawn) (as salt: fumarate) [Compound 4l, 1-(6-Ethyloxycarbonylaminoindan-1-ylmethyl)-4-(4-fluorophenyl)piperidine]
melting point: 191 to 193 °C

CNC(=S)Nc1ccc2c(c1)C(CN1CCC(c3ccc(F)cc3)CC1)CC2 (stereo not drawn) (as salt: fumarate) [Compound 5c, 4-(4-Fluorophenyl)-1-(6-methylaminothiocarbonylaminoindan-1-ylmethyl)piperidine]
melting point: 181 to 183 °C

Nc1ccc2c(c1)C(CN1CCC(c3ccc(F)cc3)CC1)CC2 (stereo not drawn) (as salt: hydrochloride) [Compound 2a]
melting point: 198 to 201 °C

CC(=O)Nc1ccc2c(c1)C(CN1CCN(c3ccccc3Cl)CC1)CC2 (stereo not drawn) (as salt: hydrochloride) [Compound 4f, 1-(6-Acetylaminoindan-1-ylmethyl)-4-(2-chlorophenyl)piperazine]
melting point: 195 to 203 °C

CC(=O)Nc1ccc2c(c1)C(CN1CC=C(c3ccc(Cl)cc3)CC1)CC2 (stereo not drawn) (as salt: oxalate)
melting point: 223 to 226 °C

CC(=O)Nc1ccc2c(c1)C(CN1CCC(O)(c3ccc(Cl)c(C(F)(F)F)c3)CC1)CC2 (stereo not drawn) (as salt: oxalate)
melting point: 163 to 165 °C

CC(=O)Nc1ccc2c(c1)C(CN1CC=C(c3c[nH]c4cc(Cl)ccc34)CC1)CC2 (stereo not drawn) (as salt: oxalate) (hydrate or solvate) [Compound 11e, 3-[1-(6-Acetylaminoindan-1-ylmethyl)-1,2,3,6-tetrahydropyridin-4-yl]-6-chloro-1H-indole]
melting point: 151 to 164 °C

COc1ccccc1N1CCN(CC2CCc3ccc(NC(C)=O)cc32)CC1 (stereo not drawn) (as salt: oxalate) [Compound 4g, 1-(6-Acetylaminoindan-1-ylmethyl)-4-(2-methoxyphenyl)piperazine]
melting point: 210 to 213 °C

CS(=O)(=O)Nc1ccc2c(c1)C(CN1CC=C(c3ccc(Cl)cc3)CC1)CC2 (stereo not drawn) (as salt: oxalate) [Compound 4m, 4-(4-Chlorophenyl)-1-(6-methansulphonylaminoindan-1-ylmethyl)-1,2,3,6-tetrahydropyperidine]
melting point: 176 to 178 °C

CNC(=O)Nc1ccc2c(c1)C(CN1CCN(c3ccc4c(c3)OCO4)CC1)CC2 (stereo not drawn) (as salt: oxalate) [Compound 5d, 1-(6-Methylaminocarbonylaminoindan-1-ylmethyl)-4-(3,4-methylendioxyphenyl)piperazine]
melting point: 132 to 133 °C

CC(=O)Nc1ccc2c(c1)C(CN1CC=C(c3c[nH]c4ccc(Cl)cc34)CC1)CS2 (stereo not drawn) (as salt: oxalate) [Compound 11b, 3-[1-(5-Acetylamino-2,3-dihydrobenzothiophen-3-ylmethyl)-1,2,3,6-tetrahydropyridin-4-yl]-5-chloro-1H-indole]
melting point: 214 to 216 °C

CC(=O)Nc1ccc2c(c1)C(CN1CCC(c3c[nH]c4ccc(F)cc34)CC1)CC2 (stereo not drawn) (as salt: oxalate) [Compound 11c, 3-[1-(6-Acetylaminoindan-1-ylmethyl)piperidin-4-yl]-5-fluoro-1H-indole]
melting point: 145 to 149 °C

CC(=O)Nc1ccc2c(c1)C(CN1CC=C(c3c[nH]c4ccc(F)cc34)CC1)CS2 (stereo not drawn) (as salt: oxalate) [Compound 11d, 3-[1-(5-Acetylamino-2,3-dihydrobenzothiophen-3-ylmethyl)-1,2,3,6-tetrahydropyridin-4-yl]-5-fluoro-1H-indole]
melting point: 155 to 165 °C

CC(=O)Nc1ccc2c(c1)C(CN1CCC(c3c[nH]c4cc(Cl)ccc34)CC1)CC2 (stereo not drawn) (as salt: oxalate) [Compound 11f, 3-[1-(6-Acetylaminoindan-1-ylmethyl)piperidin-4-yl]-6-chloro-1H-indole]
melting point: 122 to 130 °C

CC(=O)Nc1ccc2c(c1)C(CN1CC=C(c3c[nH]c4ccc(Cl)cc34)CC1)CC2 (stereo not drawn) (as salt: oxalate) [Compound 11g, 3-[1-(6-Acetylaminoindan-1-ylmethyl)-1,2,3,6-tetrahydropyridin-4-yl]-5-chloro-1H-indole]
melting point: 220 to 223 °C

CC(=O)Nc1ccc2c(c1)C(CN1CCC(c3cn(C)c4cc(Cl)ccc34)CC1)CC2 (stereo not drawn) (as salt: oxalate) [Compound 15b, 3-[1-(6-Acetylaminoindan-1-ylmethyl)piperidin-4-yl]-6-chloro-1-m ethyl-1H-indole]
melting point: 202 to 205 °C

CC(=O)Nc1ccc2c(c1)C(CN1CCC(c3ccc(F)cc3)CC1)CC2 (single isomer, unassigned; (+)) [Compound 14a, (+)-1-(6-Acetylaminoindan-1-ylmethyl)-4-(4-fluorophenyl)piperidine]
IC50 [1]: 120 nM
IC50 [2, 3]: 16 nM

Nc1ccc2c(c1)C(CN1CCC(c3ccc(F)cc3)CC1)CC2 (stereo not drawn) [Compound 2a]
IC50 [1]: 480 nM
IC50 [2, 3]: 2.5 nM

Nc1ccc2c(c1)C(CN1CCN(c3ccc(Cl)cc3)CC1)CC2 (stereo not drawn) [Compound 2e, 1-(6-Aminoindan-1-ylmethyl)-4-(4-chlorophenyl)piperazine]
melting point: 98 to 109 °C

CC(=O)Nc1ccc2c(c1)C(CN1CCN(c3ccccc3Cl)CC1)CC2 (stereo not drawn) [Compound 4f, 1-(6-Acetylaminoindan-1-ylmethyl)-4-(2-chlorophenyl)piperazine]
IC50 [1]: 84 nM
IC50 [2, 3]: 65 nM

COc1ccccc1N1CCN(CC2CCc3ccc(NC(C)=O)cc32)CC1 (stereo not drawn) [Compound 4g, 1-(6-Acetylaminoindan-1-ylmethyl)-4-(2-methoxyphenyl)piperazine]
IC50 [1]: 31 nM
IC50 [2, 3]: 280 nM

CCOC(=O)Nc1ccc2c(c1)C(CN1CCC(c3ccc(F)cc3)CC1)CC2 (stereo not drawn) [Compound 4l, 1-(6-Ethyloxycarbonylaminoindan-1-ylmethyl)-4-(4-fluorophenyl)piperidine]
inhibition at 0.1 µM ([1]; read-out: 3H 8-OH DPAT (5-HT1A) binding, % inhibition of binding at 100 nM, at 100 nM, rat brain membranes): 26%
IC50 [2, 3]: 55 nM

CS(=O)(=O)Nc1ccc2c(c1)C(CN1CC=C(c3ccc(Cl)cc3)CC1)CC2 (stereo not drawn) [Compound 4m, 4-(4-Chlorophenyl)-1-(6-methansulphonylaminoindan-1-ylmethyl)-1,2,3,6-tetrahydropyperidine]
IC50 [1]: 120 nM
IC50 [2]: 2.7 nM

CC(=O)Nc1ccc2c(c1)C(CN1CCN(c3ccc4c(c3)OCO4)CC1)CC2 (stereo not drawn) [Compound 4q, 1-(6-Acetylaminoindan-1-ylmethyl)-4-(3,4-methylenedioxyphenyl)piperazine]
melting point: 188 to 189 °C

CNC(=O)Nc1ccc2c(c1)C(CN1CCC(c3ccc(F)cc3)CC1)CC2 (stereo not drawn) [Compound 5a, 4-(4-Fluorophenyl)-1-(6-methylaminocarbonylaminoindan-1-ylmethyl)piperidine]
IC50 [1]: 35 nM
IC50 [2, 3]: 5.1 nM

CNC(=S)Nc1ccc2c(c1)C(CN1CCC(c3ccc(F)cc3)CC1)CC2 (stereo not drawn) [Compound 5c, 4-(4-Fluorophenyl)-1-(6-methylaminothiocarbonylaminoindan-1-ylmethyl)piperidine]
IC50 [1]: > 1000 nM
IC50 [2, 3]: 3.9 nM

CN(C)C(=O)Nc1ccc2c(c1)C(CN1CCC(c3ccc(F)cc3)CC1)CC2 (stereo not drawn) [Compound 6a, 1-(6-Dimethylaminocarbonylaminoindan-1-ylmethyl)-4-(4-fluorophenyl)piperidine]
IC50 [1]: 1200 nM
IC50 [2, 3]: 9.1 nM

NC(=O)Nc1ccc2c(c1)C(CN1CCC(c3ccc(F)cc3)CC1)CC2 (stereo not drawn) [Compound 7a, 1-(6-Aminocarbonylaminoindan-1-ylmethyl)-4-(4-fluorophenyl)piperidine]
IC50 [1]: 13 nM
IC50 [2, 3]: 2.6 nM

CC(=O)Nc1ccc2c(c1)C(CN1CCC(c3c[nH]c4ccc(Cl)cc34)CC1)CS2 (stereo not drawn) [Compound 11a, 3-[1-(5-Acetylamino-2,3-dihydrobenzothiophen-3-ylmethyl)piperidin-4-yl]-5-chloro-1H-indole]
IC50 [1]: 28 nM
IC50 [2, 3]: 42 nM

CC(=O)Nc1ccc2c(c1)C(CN1CC=C(c3c[nH]c4ccc(Cl)cc34)CC1)CS2 (stereo not drawn) [Compound 11b, 3-[1-(5-Acetylamino-2,3-dihydrobenzothiophen-3-ylmethyl)-1,2,3,6-tetrahydropyridin-4-yl]-5-chloro-1H-indole]
IC50 [1]: 21 nM
IC50 [2, 3]: 44 nM

CC(=O)Nc1ccc2c(c1)C(CN1CCC(c3c[nH]c4ccc(F)cc34)CC1)CC2 (stereo not drawn) [Compound 11c, 3-[1-(6-Acetylaminoindan-1-ylmethyl)piperidin-4-yl]-5-fluoro-1H-indole]
IC50 [1]: 16 nM
IC50 [2, 3]: 15 nM

CC(=O)Nc1ccc2c(c1)C(CN1CC=C(c3c[nH]c4ccc(F)cc34)CC1)CS2 (stereo not drawn) [Compound 11d, 3-[1-(5-Acetylamino-2,3-dihydrobenzothiophen-3-ylmethyl)-1,2,3,6-tetrahydropyridin-4-yl]-5-fluoro-1H-indole]
IC50 [1]: 29 nM
IC50 [2, 3]: 15 nM

Reference: US6767907B2, “4-aryl-1-(indanmethyl dihydrobenzofuranmethyl or dihydrobenzothiophenemethyl) piperidines tetrahydropyridines or piperazines” (H. Lundbeck A/S, priority 1994, dated 2004)
